Test results published in patent US20230210154A1, “SWEET PROTEIN MUTANTS FROM TRUFFLE” (MYCOTECHNOLOGY, INC., priority 2021, published 2023).
Like-named read-outs stand apart in the source and are kept apart here. Residues, ends and D or L forms follow the SMILES beside them.

How the values were obtained:
sweet taste [1] = assay: Concentration-response functions for sweet taste (Opertech Bio); type: in vivo; conditions: for Relative to Sucrose (mM): equivalency to sucrose on a molar basis; for Relative to Sucrose (mg/ml): equivalency to sucrose on a weight basis; for EC50: half-maximal sweet taste response
Protocol: Opertech Bio (Philadelphia, Pa.) performed a quantitative characterization of the concentration-dependence of the taste properties of the purified his-tagged mycodulcein (SEQ ID NO:21) obtained from E. coli as described in Example 5 and purified as described in Example 4. The sweet-taste potency and relative efficacy of mycodulcein was compared with sucrose and with other sweeteners thaumatin, rebaudioside A, and aspartame. Control standards were solutions of 200 mM sucrose, 100 mM NaCl, 0.5 mM quinine, and 10 mM citric acid. […] Each data point in the curves for mycodulcein, aspartame, thaumatin, rebaudioside A was calculated as the average across 32 replicates and averaged across 16 replicates for the sucrose curve; error bars are SEM. Points for water and sucrose controls were similarly calculated as the average across 128 and 64 replicates, respectively. Curves were fit by non-linear regression.
The concentrations that elicit half-maximal sweet taste response (EC50s, or potencies) were derived from the nonlinear regression. […] Also provided are the equivalencies to sucrose on a molar basis and on a weight basis.

sweet taste [2] = assay: CATA time intensity of the sweet sensation, trained panel; type: in vivo, human
Protocol: Evaluation of thaumatin, sucrose, and SEQ ID NO:21 was carried out using a CATA (click all that apply) time intensity of the sweet sensation of named analytes in water at 0.045 mg/ml for proteins and 10% sucrose. Methodology: Time Intensity Technique; Data collection software: EyeQuestion, responses recorded every 2.57 seconds; Scaling Method: a 15-point sweet scale, e.g. score 5=5% sucrose, score 10=10% sucrose; Evaluation Protocol: small volume sip, tilt and spit test. There were 3-6 panelists and 2 replicates. All samples were blinded and presented with randomized 3-digit codes. Training Strategies: An intense training on sweet scale over 6 weeks on 15-point sweet scale to confidently assign sweet values. Due to unique sweet behavioral patterns, it is necessary to train time intensity principles over 3 weeks. Samples were tasted with a stopwatch to note times and help reach a consensus. # of Panelists: 3-6, # of replications: 2. All samples were blinded and presented with randomized 3-digit codes. Statistical analysis: due to the small # of panelists, a statistical analysis cannot be performed.

[3] = non-linear regression, read-out: EC50 (molar units)

Molecule | Relative to Sucrose (mM) (sweet taste [1]) | Relative to Sucrose (mg/ml) (sweet taste [1]) | EC50 (sweet taste [1]; [3]) [mM] | EC50 (sweet taste [1]; read-out: EC50) [µg/mL] | time to approach threshold sweetness (Intensity <1) (sweet taste [2]; 10% sucrose in water) [s] | maximum intensity (Imax) higher than sucrose (sweet taste [2]; 15 point scale, proteins 0.045 mg/ml in water vs 10% sucrose)
COC(=O)[C@H](Cc1ccccc1)NC(=O)[C@@H](N)CC(=O)O [aspartame] (H-Asp-Phe-OMe) | 198 | 231 | 0.182 | 53.2 | – | –
OC[C@H]1O[C@@](CO)(O[C@H]2O[C@H](CO)[C@@H](O)[C@H](O)[C@H]2O)[C@@H](O)[C@@H]1O [sucrose] | 1 | 1 | 36 | 12300 | 162 | –
thaumatin | – | – | – | – | – | approximately 1 point
